Experimental data reported in the NIST ThermoML archive (doi:10.1021/acs.jced.6b00504).

Assay: wn = mass fraction of the nth substance listed
Details: 100 kPa, Liquid; for viscosity: Falling or rolling sphere viscometry; for mass density: Vibrating tube method

CNCCO [2-(methylamino)ethanol] + O
Details | mass density, w1 = 0.075 [kg/m3] | mass density, w1 = 0.15 [kg/m3] | mass density, w1 = 0.225 [kg/m3] | mass density, w1 = 0.3 [kg/m3] | viscosity, w1 = 0.075 [mPa·s] | viscosity, w1 = 0.15 [mPa·s] | viscosity, w1 = 0.225 [mPa·s] | viscosity, w1 = 0.3 [mPa·s]
293.15 K | 997.66 | 997.93 | 999 | 1001.69 | 1.39 | 1.875 | 2.702 | 3.973
298.15 K | 996.35 | 996.35 | 997.03 | 999.21 | 1.217 | 1.639 | 2.367 | 3.335
303.15 K | 994.81 | 994.57 | 994.9 | 996.58 | 1.075 | 1.426 | 2.02 | 2.886
308.15 K | 993.06 | 992.6 | 992.58 | 993.8 | 0.958 | 1.263 | 1.744 | 2.461
313.15 K | 991.11 | 990.45 | 990.11 | 990.81 | 0.859 | 1.151 | 1.521 | 2.157
318.15 K | 988.99 | 988.13 | 987.49 | 987.7 | 0.777 | 1.022 | 1.409 | 1.902
323.15 K | 986.7 | 985.66 | 984.71 | 984.5 | 0.707 | 0.993 | 1.299 | 1.727
